Test results: PubChem BioAssay (NCI)
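Results reflect a 48-hour exposure of cells in 96-well plates to compound at five concentrations. TGI marks complete inhibition of growth.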

Columns and labels:
Assay in all cases: inhibition of tumour cell growth, NCI panel, 48 h
[1] = test system: SK-MEL-28 melanoma
[2] = test system: ACHN renal
[3] = test system: CAKI-1 renal
[4] = test system: SNB-75 CNS
[5] = test system: SF-539 CNS
[6] = test system: CCRF-CEM leukemia
[7] = test system: KM12 colon
[8] = test system: HOP-62 NSCLC
[9] = test system: SK-OV-3 ovarian
[10] = test system: SK-MEL-5 melanoma
[11] = test system: SNB-19 CNS
[12] = test system: TK-10 renal
[13] = test system: MOLT-4 leukemia
[14] = test system: SR leukemia
[15] = test system: OVCAR-4 ovarian
[16] = test system: OVCAR-3 ovarian
[17] = test system: SF-268 CNS
[18] = test system: SK-MEL-2 melanoma
[19] = test system: SW-620 colon
[20] = test system: SN12C renal
[21] = test system: PC-3 prostate
[22] = test system: EKVX NSCLC
[23] = test system: HCT-15 colon
[24] = test system: HOP-92 NSCLC
[25] = test system: UACC-62 melanoma
[26] = test system: U251 CNS
[27] = test system: DU-145 prostate
[28] = test system: NCI-H522 lung
[29] = test system: MALME-3M melanoma
[30] = test system: M14 melanoma
[31] = test system: LOX IMVI melanoma
[32] = test system: RXF 393 renal
[33] = test system: A498 renal
[34] = test system: RPMI-8226 leukemia
[35] = test system: UACC-257 melanoma
[36] = test system: 786-0 renal
[37] = test system: BT-549 breast
[38] = test system: T-47D breast
[39] = test system: SF-295 CNS
[40] = test system: K-562 leukemia
[41] = test system: HCT-116 colon
[42] = test system: COLO 205 colon
[43] = test system: NCI/ADR-RES ovarian
[44] = test system: MDA-MB-435
[45] = test system: MDA-N
[46] = test system: OVCAR-8 ovarian
[47] = test system: NCI-H23 lung
[48] = test system: NCI-H460 lung
[49] = test system: MDA-MB-231 breast
[50] = test system: A549 NSCLC
[51] = test system: UO-31 renal
[52] = test system: NCI-H226 lung
[53] = test system: HCC-2998 colon
[54] = test system: HS 578T breast
[55] = test system: OVCAR-5 ovarian
[56] = test system: HT29 colon
[57] = test system: MCF7 breast
[58] = test system: IGROV1 ovarian
[59] = test system: HL-60(TB) leukemia

SMILES: CN(C)/C=N/S(=O)(=O)c1nn2c(C=O)c(-c3ccccc3)nc2s1
- TGI [1]: 29.8 µM
- TGI [2]: 21.1 µM
- TGI [3]: 8.68 µM
- TGI [4]: > 100 µM
- TGI [5]: > 100 µM
- TGI [6]: 9.8 µM
- TGI [7]: > 79.7 µM
- TGI [8]: > 100 µM
- TGI [9]: > 100 µM
- TGI [10]: 27.9 µM
- TGI [11]: > 100 µM
- TGI [12]: > 77.1 µM
- TGI [13]: 32.1 µM
- TGI [14]: 21.3 µM
- TGI [15]: > 89.9 µM
- TGI [16]: 24.1 µM
- TGI [17]: > 100 µM
- TGI [18]: > 100 µM
- TGI [19]: 20.2 µM
- TGI [20]: 49.7 µM
- TGI [21]: > 89 µM
- TGI [22]: > 100 µM
- TGI [23]: 45.6 µM
- TGI [24]: > 100 µM
- TGI [25]: 54.4 µM
- TGI [26]: > 31.6 µM
- TGI [27]: > 100 µM
- TGI [28]: 15.8 µM
- TGI [29]: 35.6 µM
- TGI [30]: 14.8 µM
- TGI [31]: > 89 µM
- TGI [32]: 49 µM
- TGI [33]: > 100 µM
- TGI [34]: 42.9 µM
- TGI [35]: > 63.3 µM
- TGI [36]: 21.3 µM
- TGI [37]: > 26.4 µM
- TGI [38]: 61.4 µM
- TGI [39]: > 100 µM
- TGI [40]: > 61.7 µM
- TGI [41]: 13.1 µM
- TGI [42]: > 38.6 µM
- TGI [43]: > 76.6 µM
- TGI [44]: > 100 µM
- TGI [45]: 52.5 µM
- TGI [46]: > 53.4 µM
- TGI [47]: > 83 µM
- TGI [48]: > 51.4 µM
- TGI [49]: > 74.9 µM
- TGI [50]: > 82.4 µM
- TGI [51]: 19.5 µM
- TGI [52]: > 57.4 µM
- TGI [53]: > 56.5 µM
- TGI [54]: > 100 µM
- TGI [55]: > 100 µM
- TGI [56]: 4.58 µM
- TGI [57]: > 100 µM

SMILES: CC[C@@]1(O)C(=O)OCc2c1cc1n(c2=O)Cc2c-1nc1ccccc1c2/C=N/NC(=O)C[N+](C)(C)C
- TGI [1]: > 100 µM
- TGI [3]: > 100 µM
- TGI [4]: 9.74 µM
- TGI [5]: 2.61 µM
- TGI [7]: > 100 µM
- TGI [9]: > 100 µM
- TGI [10]: 7.98 µM
- TGI [11]: > 94.2 µM
- TGI [12]: > 100 µM
- TGI [13]: 16.3 µM
- TGI [14]: 0.922 µM
- TGI [15]: > 100 µM
- TGI [16]: > 100 µM
- TGI [17]: > 63 µM
- TGI [18]: > 100 µM
- TGI [19]: > 100 µM
- TGI [20]: > 100 µM
- TGI [21]: > 100 µM
- TGI [22]: > 100 µM
- TGI [23]: > 100 µM
- TGI [24]: > 49.3 µM
- TGI [25]: 3.66 µM
- TGI [26]: > 35.8 µM
- TGI [27]: 22 µM
- TGI [28]: > 100 µM
- TGI [29]: > 100 µM
- TGI [30]: 20.5 µM
- TGI [31]: > 37.6 µM
- TGI [32]: 11.7 µM
- TGI [33]: > 65.1 µM
- TGI [34]: > 100 µM
- TGI [35]: > 100 µM
- TGI [36]: > 55.7 µM
- TGI [37]: > 100 µM
- TGI [38]: 30.4 µM
- TGI [39]: > 33.3 µM
- TGI [40]: > 100 µM
- TGI [41]: > 100 µM
- TGI [42]: > 100 µM
- TGI [43]: > 62.3 µM
- TGI [44]: > 100 µM
- TGI [45]: > 100 µM
- TGI [46]: > 100 µM
- TGI [47]: 6.27 µM
- TGI [48]: 21.5 µM
- TGI [49]: > 100 µM
- TGI [50]: > 100 µM
- TGI [58]: > 100 µM
- TGI [51]: 9.72 µM
- TGI [52]: 31.8 µM
- TGI [53]: > 100 µM
- TGI [54]: > 100 µM
- TGI [55]: > 100 µM
- TGI [56]: > 100 µM
- TGI [57]: > 100 µM

SMILES: COc1cccc(-c2nnc3c(-c4ccccc4)nc4ccccc4n23)c1
- TGI [1]: > 100 µM
- TGI [2]: > 100 µM
- TGI [3]: > 86.6 µM
- TGI [5]: > 100 µM
- TGI [6]: 39.1 µM
- TGI [7]: > 43.7 µM
- TGI [8]: > 100 µM
- TGI [9]: > 100 µM
- TGI [10]: 77.6 µM
- TGI [11]: > 100 µM
- TGI [12]: > 100 µM
- TGI [13]: > 63.8 µM
- TGI [14]: > 54.8 µM
- TGI [15]: > 100 µM
- TGI [16]: > 100 µM
- TGI [17]: > 100 µM
- TGI [18]: 44.3 µM
- TGI [19]: > 100 µM
- TGI [20]: > 100 µM
- TGI [21]: > 100 µM
- TGI [22]: > 100 µM
- TGI [23]: > 100 µM
- TGI [24]: > 100 µM
- TGI [25]: > 100 µM
- TGI [26]: > 100 µM
- TGI [27]: > 100 µM
- TGI [28]: 22.7 µM
- TGI [29]: > 83.7 µM
- TGI [30]: > 100 µM
- TGI [31]: > 100 µM
- TGI [32]: 94.7 µM
- TGI [33]: 93.4 µM
- TGI [34]: 26.4 µM
- TGI [35]: > 100 µM
- TGI [36]: > 100 µM
- TGI [37]: > 100 µM
- TGI [38]: 17.3 µM
- TGI [39]: > 100 µM
- TGI [40]: > 56.5 µM
- TGI [41]: > 100 µM
- TGI [42]: > 100 µM
- TGI [43]: > 100 µM
- TGI [44]: 8.62 µM
- TGI [45]: 14.2 µM
- TGI [46]: > 100 µM
- TGI [47]: > 100 µM
- TGI [59]: 34 µM
- TGI [48]: 98.7 µM
- TGI [49]: > 100 µM
- TGI [50]: > 100 µM
- TGI [58]: > 100 µM
- TGI [51]: > 100 µM
- TGI [52]: > 100 µM
- TGI [53]: 62.7 µM
- TGI [54]: > 100 µM
- TGI [55]: > 100 µM
- TGI [56]: > 100 µM
- TGI [57]: > 100 µM
